According to ChEMBL document CHEMBL1201862, “PubChem BioAssay data set” (2004):
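Cultured in 96-well plates, cells were exposed to test compound for 48 hours across five concentrations. Here, GI50 denotes the concentration required for 50% inhibition of growth.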 Activity calls are given as the source filed them. No stated cut-off is given here; in the data, active = GI50 up to about 1.1 µM and inactive = higher.

Assays:
Test in all cases: NCI-60 cell line screen, 48 h
MDA-MB-435 = tested on: MDA-MB-435
SK-MEL-28 = tested on: SK-MEL-28
HL-60 = tested on: HL-60
SF-268 = tested on: SF-268
UACC-62 = tested on: UACC-62
PC-3 = tested on: PC-3
CAKI-1 = tested on: CAKI-1
MCF7 = tested on: MCF7
SR = tested on: SR
K562 = tested on: K562
OVCAR-8 = tested on: OVCAR-8
TK-10 = tested on: TK-10
SW-620 = tested on: SW-620
786-0 = tested on: 786-0
RPMI-8226 = tested on: RPMI-8226
SK-MEL-2 = tested on: SK-MEL-2
KM12 = tested on: KM12
CCRF-CEM = tested on: CCRF-CEM
U-251 = tested on: U-251
COLO 205 = tested on: COLO 205
UO-31 = tested on: UO-31
OVCAR-5 = tested on: OVCAR-5
OVCAR-4 = tested on: OVCAR-4
SNB-19 = tested on: SNB-19
SK-OV-3 = tested on: SK-OV-3
OVCAR-3 = tested on: OVCAR-3
NCI-H23 = tested on: NCI-H23
NCI-H522 = tested on: NCI-H522
T47D = tested on: T47D
ACHN = tested on: ACHN
NCI/ADR-RES = tested on: NCI/ADR-RES
Malme-3M = tested on: Malme-3M
LOX IMVI = tested on: LOX IMVI
UACC-257 = tested on: UACC-257
NCI-H460 = tested on: NCI-H460
Hs-578T = tested on: Hs-578T
A549 = tested on: A549
SF-295 = tested on: SF-295
SK-MEL-5 = tested on: SK-MEL-5
SN12C = tested on: SN12C
HT-29 = tested on: HT-29
HOP-62 = tested on: HOP-62
HCT-15 = tested on: HCT-15
NCI-H226 = tested on: NCI-H226
BT-549 = tested on: BT-549
HOP-92 = tested on: HOP-92
SNB-75 = tested on: SNB-75
MOLT-4 = tested on: MOLT-4
M14 = tested on: M14
EKVX = tested on: EKVX
IGROV-1 = tested on: IGROV-1
DU-145 = tested on: DU-145
MDA-MB-231 = tested on: MDA-MB-231
HCC 2998 = tested on: HCC 2998
HCT-116 = tested on: HCT-116
RXF 393 = tested on: RXF 393
SF-539 = tested on: SF-539
A498 = tested on: A498
MDA-N = tested on: MDA-N

Measured: GI50

O=C(NCP(=O)(Oc1ccccc1)Oc1ccccc1)OCc1ccccc1
inactive: MDA-MB-435 > 100 µM | SK-MEL-28 > 100 µM | HL-60 > 100 µM | SF-268 > 100 µM | UACC-62 62.8 µM | PC-3 43.9 µM | CAKI-1 > 100 µM | MCF7 > 100 µM | SR > 100 µM | K562 > 100 µM | OVCAR-8 > 100 µM | TK-10 > 100 µM | SW-620 > 100 µM | 786-0 53.2 µM | RPMI-8226 > 100 µM | SK-MEL-2 > 100 µM | KM12 > 100 µM | CCRF-CEM > 100 µM | U-251 > 100 µM | COLO 205 > 100 µM | UO-31 > 100 µM | OVCAR-5 > 100 µM | OVCAR-4 45.3 µM | SNB-19 > 100 µM | SK-OV-3 33.1 µM | OVCAR-3 55.1 µM | NCI-H23 > 100 µM | NCI-H522 83.6 µM | T47D > 100 µM | ACHN 80.5 µM | NCI/ADR-RES > 100 µM | Malme-3M 77.6 µM | LOX IMVI > 100 µM | UACC-257 > 100 µM | NCI-H460 > 100 µM | Hs-578T 40.7 µM | A549 70.8 µM | SF-295 42.2 µM | SK-MEL-5 > 100 µM | SN12C > 100 µM | HT-29 > 100 µM | HOP-62 39.8 µM | NCI-H226 > 100 µM | BT-549 > 100 µM | HOP-92 38.7 µM | SNB-75 32 µM | MOLT-4 > 100 µM | M14 > 100 µM | EKVX > 100 µM | IGROV-1 > 100 µM
> 100 µM: HCT-15

C/C(=C\CO)CC/C=C(\C)CNc1c(F)c(F)c(F)c(F)c1F
30.2 µM: HCT-15
inactive: MDA-MB-435 22.9 µM | SK-MEL-28 20.5 µM | HL-60 28.7 µM | SF-268 23.1 µM | UACC-62 17.2 µM | PC-3 21.1 µM | CAKI-1 33.3 µM | MCF7 29.2 µM | SR 28.3 µM | K562 33 µM | OVCAR-8 19.8 µM | TK-10 29.5 µM | SW-620 33.2 µM | 786-0 44.1 µM | RPMI-8226 14 µM | SK-MEL-2 20.7 µM | KM12 27.5 µM | CCRF-CEM 28.1 µM | U-251 24.3 µM | COLO 205 27.5 µM | UO-31 35.6 µM | OVCAR-5 36.5 µM | OVCAR-4 44.5 µM | SNB-19 27.7 µM | SK-OV-3 63.8 µM | DU-145 43.6 µM | OVCAR-3 20.2 µM | NCI-H23 > 100 µM | MDA-MB-231 19 µM | NCI-H522 18.4 µM | T47D 61.2 µM | ACHN 43.2 µM | NCI/ADR-RES 30.8 µM | Malme-3M 27.4 µM | LOX IMVI 29.2 µM | UACC-257 21.3 µM | NCI-H460 36.1 µM | Hs-578T 33.7 µM | A549 28.7 µM | SF-295 22.4 µM | SK-MEL-5 15.8 µM | HCC 2998 24.7 µM | HCT-116 50.8 µM | SN12C 20.2 µM | HT-29 24 µM | HOP-62 24.7 µM | NCI-H226 28.1 µM | RXF 393 24.8 µM | BT-549 6.4 µM | SF-539 20.8 µM | SNB-75 28.1 µM | MOLT-4 29.6 µM | M14 38.2 µM | EKVX 30.7 µM | IGROV-1 49.5 µM

CC(=O)C1=C(N=[N+]=[N-])c2cccc3cccc(c23)C1=O
inactive: MDA-MB-435 20.6 µM | SF-268 25.2 µM | A498 28.8 µM | UACC-62 15.2 µM | PC-3 19.8 µM | CAKI-1 15.3 µM | MDA-N 18.9 µM | MCF7 10.6 µM | K562 8.11 µM | OVCAR-8 23.6 µM | TK-10 15.3 µM | SW-620 18.3 µM | 786-0 17.1 µM | RPMI-8226 18.5 µM | SK-MEL-2 12.4 µM | KM12 21.1 µM | CCRF-CEM 5.73 µM | U-251 19.2 µM | COLO 205 15.7 µM | UO-31 14.6 µM | OVCAR-5 16.5 µM | OVCAR-4 23.6 µM | SNB-19 30.1 µM | SK-OV-3 24 µM | OVCAR-3 12.2 µM | NCI-H23 20 µM | MDA-MB-231 11.5 µM | NCI-H522 14.2 µM | T47D 15.8 µM | ACHN 16 µM | NCI/ADR-RES 25.1 µM | Malme-3M 17.3 µM | LOX IMVI 14.7 µM | UACC-257 17.9 µM | NCI-H460 21 µM | Hs-578T 29.3 µM | A549 24.5 µM | SF-295 22.5 µM | SK-MEL-5 18.7 µM | HCC 2998 17.6 µM | HCT-116 16 µM | SN12C 16.1 µM | HT-29 17.6 µM | HOP-62 14.8 µM | NCI-H226 24.7 µM | RXF 393 11.4 µM | BT-549 20.8 µM | HOP-92 21.7 µM | SF-539 13.3 µM | SNB-75 21.8 µM | MOLT-4 7.19 µM | M14 12.7 µM | EKVX 18.2 µM | IGROV-1 16.1 µM
15.7 µM: HCT-15
